Experiments:
[1] = test system: Trichoderma brevicompactum; experiment: Potato field trial: beneficial fungi in soil (ITS sequencing, differential abundance); type: in vivo, potato (Solanum tuberculosum L.); conditions: location B; 200 and 250 gai/ha
Experimental: (§1) In this experiment, assuming that biodiversity can be measured by the taxonomic richness and abundance of each taxon, the differences between treatments are determined and their effect on populations and beneficial species over time is verified. This leads to testing two hypotheses. Firstly, there is an impact of cyclobutrifluram applications on microbial diversity. Secondly, the use of cyclobutrifluram improves beneficial microbial diversity over time. These hypotheses were tested in two potato farms in the USA.
The experiment was carried out in two potato (Solanum tuberculosum L.) fields located in two test locations in Louisiana, USA, described as locations A and B in Table 2. […]
(§2) As set out above, to detect microbial community modifications in the soil microbiome associated with the cyclobutrifluram treatment, PCR amplification and successive high-throughput sequencing of bacterial and fungal taxonomical marker genes (the small-subunit ribosomal RNA gene (16S) and the ribosomal internal transcribed spacers (ITS) respectively) were performed on plant-associated soil samples. An exploratory data analysis was conducted to describe the microbial biodiversity and the behaviour of the percentage of the abundance of species under the evaluated factors. […]

soil fungal community = experiment: Plant associated soil microbiome: fungal community by ITS amplicon sequencing; type: in vivo, tomato plants
Source text: Differential abundance of fungal taxa after 97 days in treated soil, as detected by PCR amplification and successive high-throughput sequencing of fungal taxonomical marker genes (the small-subunit ribosomal RNA gene (16S) and the ribosomal internal transcribed spacers (ITS) respectively) on plant-associated soil samples.
To detect microbial community modifications in the soil microbiome associated with the cyclobutrifluram treatment against root knot nematodes, PCR amplification and successive high-throughput sequencing of bacterial and fungal taxonomical marker genes (the small-subunit ribosomal RNA gene (16S) and the ribosomal internal transcribed spacers (ITS) respectively) were performed on plant-associated soil samples.
Comparison of the fungal community of Control and RKN-Cyclobutrifluram plant-associated 5 soil samples highlighted a microbiome shift mainly characterised by the reduction of the plant-pathogen Fusarium, an ubiquitous pathogenic fungus that constitutes an abundant taxon in control soil. Fusarium relative abundance results reduced from 17.8% in control samples to 7.5% after cyclobutrifluram treatment. Table 1b reports fungal genera detected by ITS gene amplicon sequencing with taxonomy assignment at genus level; relative abundance in Control and Cyclobutrifluram treated samples statistically significative (Deseq2, p=0.1), the relative abundance variation.

[2] = test system: beneficial bacterial species; experiment: Potato field trial: beneficial bacteria in soil (16S sequencing, differential abundance); type: in vivo, potato (Solanum tuberculosum L.)
Experimental: as §1
The experiment was carried out in two potato (Solanum tuberculosum L.) fields located in two test locations in Louisiana, USA, described as locations A and B in Table 2. In each experimental field, three products were tested in an area of 10 m^2 (Table 3) and three replicates per product were established by complete block randomized. To evaluate the effects on the microbiome a “Check” plot (untreated) was established. In addition, fluopyram was employed as a comparative example. Fluopyram is a widely used fungicide and nematicide, and represents the industry standard herein.
To analyse the microbial biodiversity, three soil samples were taken per treatment and each sample consisted of soil collected from three different points within the plots. In this way, the effect of soil variability was minimized, since there were nine samples per treatment. […]
as §2

[3] = Cyclobutrifluram treated plant-associated soil, RKN

With `O=C(N[C@@H]1CC[C@@H]1c1ccc(Cl)cc1Cl)c1cccnc1C(F)(F)F` (racemic) [Cyclobutrifluram, cyclobutrifluram] the “Trichoderma brevicompactum relative abundance” value [1] was “significant enhancement”, the “Relative abundance, Acremonium” value (soil fungal community; [3]) was 0.214% and the “Relative abundance, Arthrinium” value (soil fungal community; [3]) was 0.398%. The “Relative abundance, Candida” value (soil fungal community; [3]) was 0.839%, the “Relative abundance, Chrysosporium” value (soil fungal community; [3]) was 17.327% and the “Relative abundance, Cladosporium” value (soil fungal community; [3]) was 3.983%. The “Relative abundance, Conostachys” value (soil fungal community; [3]) was 0.797%, the “Relative abundance, Eleutherascus” value (soil fungal community; [3]) was 0.217% and the “Relative abundance, Endoconidiophora” value (soil fungal community; [3]) was 5.102%. The “Relative abundance, Fusarium” value (soil fungal community; [3]) was 7.544%, the “Relative abundance, Humicola” value (soil fungal community; [3]) was 0.000% and the “Relative abundance, Lectera” value (soil fungal community; [3]) was 1.767%. For the same compound, the “Relative abundance, Monocillium” value (soil fungal community; [3]) was 0.083%, the “Relative abundance, Mortierella” value (soil fungal community; [3]) was 2.111% and the “Relative abundance, Mycosphaerella” value (soil fungal community; [3]) was 1.672%. The “Relative abundance, Oidiodendron” value (soil fungal community; [3]) was 0.292%, the “Relative abundance, Paraphoma” value (soil fungal community; [3]) was 0.043% and the “Relative abundance, Phialemonium” value (soil fungal community; [3]) was 0.357%. The “Relative abundance, Pseudaleuria” value (soil fungal community; [3]) was 1.936%, the “Relative abundance, Pseudogymnoascus” value (soil fungal community; [3]) was 0.870% and the “Relative abundance, Saitozyma” value (soil fungal community; [3]) was 0.907%. For the same compound, the “Relative abundance, Schwanniomyces” value (soil fungal community; [3]) was 0.017%, the “Relative abundance, Sebacina” value (soil fungal community; [3]) was 0.077% and the “Relative abundance, Solicoccozyma” value (soil fungal community; [3]) was 0.407%. The “Relative abundance, Tetracladium” value (soil fungal community; [3]) was 0.318%, the “Relative abundance, Verticillium” value (soil fungal community; [3]) was 0.571% and the “Relative abundance, Fusarium” value (soil fungal community; Cyclobutrifluram treated plant-associated soil, RKN, listed as cyclobutrifluram) was 7.5%. The “relative abundance variation vs Control, Acremonium” value (soil fungal community; Deseq2, p=0.1) was “+0.056%”, the “relative abundance variation vs Control, Arthrinium” value (soil fungal community; Deseq2, p=0.1) was “+0.293%” and the “relative abundance variation vs Control, Candida” value (soil fungal community; Deseq2, p=0.1) was −0.269%. For the same compound, the “relative abundance variation vs Control, Chrysosporium” value (soil fungal community; Deseq2, p=0.1) was “+2.918%”, the “relative abundance variation vs Control, Cladosporium” value (soil fungal community; Deseq2, p=0.1) was −1.949% and the “relative abundance variation vs Control, Conostachys” value (soil fungal community; Deseq2, p=0.1) was “+0.132%”. The “relative abundance variation vs Control, Eleutherascus” value (soil fungal community; Deseq2, p=0.1) was “+0.108%”, the “relative abundance variation vs Control, Endoconidiophora” value (soil fungal community; Deseq2, p=0.1) was “+2.581%” and the “relative abundance variation vs Control, Fusarium” value (soil fungal community; Deseq2, p=0.1) was −10.274%. For the same compound, the “relative abundance variation vs Control, Humicola” value (soil fungal community; Deseq2, p=0.1) was −0.112%, the “relative abundance variation vs Control, Lectera” value (soil fungal community; Deseq2, p=0.1) was “+1.617%” and the “relative abundance variation vs Control, Monocillium” value (soil fungal community; Deseq2, p=0.1) was “+0.070%”. For the same compound, the “relative abundance variation vs Control, Mortierella” value (soil fungal community; Deseq2, p=0.1) was −0.412%, the “relative abundance variation vs Control, Mycosphaerella” value (soil fungal community; Deseq2, p=0.1) was −0.541% and the “relative abundance variation vs Control, Oidiodendron” value (soil fungal community; Deseq2, p=0.1) was “+0.054%”. The “relative abundance variation vs Control, Paraphoma” value (soil fungal community; Deseq2, p=0.1) was −0.023%, the “relative abundance variation vs Control, Phialemonium” value (soil fungal community; Deseq2, p=0.1) was −0.044% and the “relative abundance variation vs Control, Pseudaleuria” value (soil fungal community; Deseq2, p=0.1) was “+1.181%”. The “relative abundance variation vs Control, Pseudogymnoascus” value (soil fungal community; Deseq2, p=0.1) was “+0.550%”, the “relative abundance variation vs Control, Saitozyma” value (soil fungal community; Deseq2, p=0.1) was −0.038% and the “relative abundance variation vs Control, Schwanniomyces” value (soil fungal community; Deseq2, p=0.1) was −0.005%. For the same compound, the “relative abundance variation vs Control, Sebacina” value (soil fungal community; Deseq2, p=0.1) was −0.027%, the “relative abundance variation vs Control, Solicoccozyma” value (soil fungal community; Deseq2, p=0.1) was “+0.082%” and the “relative abundance variation vs Control, Tetracladium” value (soil fungal community; Deseq2, p=0.1) was “+0.088%”. For the same compound, the “relative abundance variation vs Control, Verticillium” value (soil fungal community; Deseq2, p=0.1) was “+0.156%”, the “effect on soil microbiome diversity (fungal taxa, FIG. 1)” value (soil fungal community; apart from inhibiting Fusarium) was “preserves soil microbiome diversity” and the “relative abundance of the plant-pathogen Fusarium (in words)” value (soil fungal community; soil of tomato plants in presence of RKN infestation, medium-long term) was “substantially reduced”. For the same compound, the “abundance of Bacillus halmapalus and B. cereus” value ([2]; T2 (60 days after treatment)) was “increased significantly”, the “Sphingomonas species (S. sediminicola, S. japsi and S. daechungensis) abundance” value ([2]; location A in T3 (120 days after application), location B in T2 (60 days after application)) was “tend to increase significantly” and the Pseudomonas putida abundance ([2]; location A, 200 and 250 gai/ha) was “significant increase”.
